Assay results published in ChEMBL document CHEMBL2439971, “Design, synthesis and antiproliferative evaluation of fluorenone analogs with DNA topoisomerase I inhibitory properties” (Bioorg Med Chem, 2013).
Active and inactive are the calls of the source. The rule behind the calls is not given here.

What was measured:
Homo sapiens = organism: Homo sapiens; test: Inhibition of telomerase (unknown origin) at 10 uM TRAP assay
CAKI-1 = test: Cytotoxicity against human CAKI-1 cells at 10 uM after 48 hrs by sulforhodamine B assay relative to control; assay type: functional
MDA-MB-468 = test: Cytotoxicity against human MDA-MB-468 cells at 10 uM after 48 hrs by sulforhodamine B assay relative to control; assay type: functional
T47D = test: Cytotoxicity against human T47D cells at 10 uM after 48 hrs by sulforhodamine B assay relative to control; assay type: functional
BT-549 = test: Cytotoxicity against human BT549 cells at 10 uM after 48 hrs by sulforhodamine B assay relative to control; assay type: functional
[1] = Cytotoxicity against human Hs 578T cells at 10 uM after 48 hrs by sulforhodamine B assay relative to control; assay type: functional
MDA-MB-231 = test: Cytotoxicity against human MDA-MB-231 cells at 10 uM after 48 hrs by sulforhodamine B assay relative to control; assay type: functional
MCF7 = test: Cytotoxicity against human MCF7 cells at 10 uM after 48 hrs by sulforhodamine B assay relative to control; assay type: functional
DU-145 = test: Cytotoxicity against human DU145 cells at 10 uM after 48 hrs by sulforhodamine B assay relative to control; assay type: functional
PC-3 [2] = test: Cytotoxicity against human PC3 cells at 10 uM after 48 hrs by sulforhodamine B assay relative to control; assay type: functional
UO-31 = test: Cytotoxicity against human UO31 cells at 10 uM after 48 hrs by sulforhodamine B assay relative to control; assay type: functional
SN12C = test: Cytotoxicity against human SN12C cells at 10 uM after 48 hrs by sulforhodamine B assay relative to control; assay type: functional
RXF 393 = test: Cytotoxicity against human RXF393 cells at 10 uM after 48 hrs by sulforhodamine B assay relative to control; assay type: functional
ACHN = test: Cytotoxicity against human ACHN cells at 10 uM after 48 hrs by sulforhodamine B assay relative to control; assay type: functional
A498 = test: Cytotoxicity against human A498 cells at 10 uM after 48 hrs by sulforhodamine B assay relative to control; assay type: functional
786-0 = test: Cytotoxicity against human 786-0 cells at 10 uM after 48 hrs by sulforhodamine B assay relative to control; assay type: functional
SK-OV-3 = test: Cytotoxicity against human SKOV3 cells at 10 uM after 48 hrs by sulforhodamine B assay relative to control; assay type: functional
NCI/ADR-RES = test: Cytotoxicity against human NCI/ADR-RES cells at 10 uM after 48 hrs by sulforhodamine B assay relative to control; assay type: functional
OVCAR-8 = test: Cytotoxicity against human OVCAR8 cells at 10 uM after 48 hrs by sulforhodamine B assay relative to control; assay type: functional
OVCAR-5 = test: Cytotoxicity against human OVCAR5 cells at 10 uM after 48 hrs by sulforhodamine B assay relative to control; assay type: functional
OVCAR-3 = test: Cytotoxicity against human OVCAR3 cells at 10 uM after 48 hrs by sulforhodamine B assay relative to control; assay type: functional
IGROV-1 = test: Cytotoxicity against human IGROV1 cells at 10 uM after 48 hrs by sulforhodamine B assay relative to control; assay type: functional
UACC-62 = test: Cytotoxicity against human UACC62 cells at 10 uM after 48 hrs by sulforhodamine B assay relative to control; assay type: functional
UACC-257 = test: Cytotoxicity against human UACC257 cells at 10 uM after 48 hrs by sulforhodamine B assay relative to control; assay type: functional
SK-MEL-5 = test: Cytotoxicity against human SK-MEL-5 cells at 10 uM after 48 hrs by sulforhodamine B assay relative to control; assay type: functional
SK-MEL-28 = test: Cytotoxicity against human SK-MEL-28 cells at 10 uM after 48 hrs by sulforhodamine B assay relative to control; assay type: functional
SK-MEL-2 = test: Cytotoxicity against human SK-MEL-2 cells at 10 uM after 48 hrs by sulforhodamine B assay relative to control; assay type: functional
MDA-MB-435 = test: Cytotoxicity against human MDA-MB-435 cells at 10 uM after 48 hrs by sulforhodamine B assay relative to control; assay type: functional
M14 = test: Cytotoxicity against human M14 cells at 10 uM after 48 hrs by sulforhodamine B assay relative to control; assay type: functional
Malme-3M = test: Cytotoxicity against human MALME-3M cells at 10 uM after 48 hrs by sulforhodamine B assay relative to control; assay type: functional
LOX IMVI = test: Cytotoxicity against human LOXIMVI cells at 10 uM after 48 hrs by sulforhodamine B assay relative to control; assay type: functional
SNB-75 = test: Cytotoxicity against human SNB75 cells at 10 uM after 48 hrs by sulforhodamine B assay relative to control; assay type: functional
U-251 = test: Cytotoxicity against human U251 cells at 10 uM after 48 hrs by sulforhodamine B assay relative to control; assay type: functional
SF-539 = test: Cytotoxicity against human SF539 cells at 10 uM after 48 hrs by sulforhodamine B assay relative to control; assay type: functional
SNB-19 = test: Cytotoxicity against human SNB19 cells at 10 uM after 48 hrs by sulforhodamine B assay relative to control; assay type: functional
SF-295 = test: Cytotoxicity against human SF295 cells at 10 uM after 48 hrs by sulforhodamine B assay relative to control; assay type: functional
SF-268 = test: Cytotoxicity against human SF268 cells at 10 uM after 48 hrs by sulforhodamine B assay relative to control; assay type: functional
SW-620 = test: Cytotoxicity against human SW620 cells at 10 uM after 48 hrs by sulforhodamine B assay relative to control; assay type: functional
KM12 = test: Cytotoxicity against human KM12 cells at 10 uM after 48 hrs by sulforhodamine B assay relative to control; assay type: functional
HT-29 = test: Cytotoxicity against human HT-29 cells at 10 uM after 48 hrs by sulforhodamine B assay relative to control; assay type: functional
HCT-15 = test: Cytotoxicity against human HCT15 cells at 10 uM after 48 hrs by sulforhodamine B assay relative to control; assay type: functional
HCT-116 = test: Cytotoxicity against human HCT116 cells at 10 uM after 48 hrs by sulforhodamine B assay relative to control; assay type: functional
HCC 2998 = test: Cytotoxicity against human HCC2998 cells at 10 uM after 48 hrs by sulforhodamine B assay relative to control; assay type: functional
COLO 205 = test: Cytotoxicity against human COLO205 cells at 10 uM after 48 hrs by sulforhodamine B assay relative to control; assay type: functional
NCI-H522 = test: Cytotoxicity against human NCI-H522 cells at 10 uM after 48 hrs by sulforhodamine B assay relative to control; assay type: functional
NCI-H460 = test: Cytotoxicity against human NCI-H460 cells at 10 uM after 48 hrs by sulforhodamine B assay relative to control; assay type: functional
NCI-H322M = test: Cytotoxicity against human NCI-H322M cells at 10 uM after 48 hrs by sulforhodamine B assay relative to control; assay type: functional
NCI-H23 = test: Cytotoxicity against human NCI-H23 cells at 10 uM after 48 hrs by sulforhodamine B assay relative to control; assay type: functional
NCI-H226 = test: Cytotoxicity against human NCI-H226 cells at 10 uM after 48 hrs by sulforhodamine B assay relative to control; assay type: functional
HOP-92 = test: Cytotoxicity against human HOP92 cells at 10 uM after 48 hrs by sulforhodamine B assay relative to control; assay type: functional
HOP-62 = test: Cytotoxicity against human HOP62 cells at 10 uM after 48 hrs by sulforhodamine B assay relative to control; assay type: functional
A549 = test: Cytotoxicity against human A549 cells at 10 uM after 48 hrs by sulforhodamine B assay relative to control; assay type: functional
RPMI-8226 = test: Cytotoxicity against human RPMI8226 cells at 10 uM after 48 hrs by sulforhodamine B assay relative to control; assay type: functional
MOLT-4 = test: Cytotoxicity against human MOLT4 cells at 10 uM after 48 hrs by sulforhodamine B assay relative to control; assay type: functional
K562 = test: Cytotoxicity against human K562 cells at 10 uM after 48 hrs by sulforhodamine B assay relative to control; assay type: functional
HL-60(TB) = test: Cytotoxicity against human HL-60(TB) cells at 10 uM after 48 hrs by sulforhodamine B assay relative to control; assay type: functional
CCRF-CEM = test: Cytotoxicity against human CCRF-CEM cells at 10 uM after 48 hrs by sulforhodamine B assay relative to control; assay type: functional
PC-3 [3] = test: Cytotoxicity against human PC3 cells after 48 hrs by sulforhodamine B assay; assay type: functional, cell-based; details: PC-3, 48 h
[4] = target: DNA topoisomerase 1 (Homo sapiens) (UniProt P11387); test: Inhibition of recombinant human DNA topoisomerase 1-mediated relaxation of supercoiled pHOT DNA at 25 to 50 uM after 45 mins by agarose gel electrophoresis
Sequence of DNA topoisomerase 1 (Homo sapiens) (P11387 whole entry): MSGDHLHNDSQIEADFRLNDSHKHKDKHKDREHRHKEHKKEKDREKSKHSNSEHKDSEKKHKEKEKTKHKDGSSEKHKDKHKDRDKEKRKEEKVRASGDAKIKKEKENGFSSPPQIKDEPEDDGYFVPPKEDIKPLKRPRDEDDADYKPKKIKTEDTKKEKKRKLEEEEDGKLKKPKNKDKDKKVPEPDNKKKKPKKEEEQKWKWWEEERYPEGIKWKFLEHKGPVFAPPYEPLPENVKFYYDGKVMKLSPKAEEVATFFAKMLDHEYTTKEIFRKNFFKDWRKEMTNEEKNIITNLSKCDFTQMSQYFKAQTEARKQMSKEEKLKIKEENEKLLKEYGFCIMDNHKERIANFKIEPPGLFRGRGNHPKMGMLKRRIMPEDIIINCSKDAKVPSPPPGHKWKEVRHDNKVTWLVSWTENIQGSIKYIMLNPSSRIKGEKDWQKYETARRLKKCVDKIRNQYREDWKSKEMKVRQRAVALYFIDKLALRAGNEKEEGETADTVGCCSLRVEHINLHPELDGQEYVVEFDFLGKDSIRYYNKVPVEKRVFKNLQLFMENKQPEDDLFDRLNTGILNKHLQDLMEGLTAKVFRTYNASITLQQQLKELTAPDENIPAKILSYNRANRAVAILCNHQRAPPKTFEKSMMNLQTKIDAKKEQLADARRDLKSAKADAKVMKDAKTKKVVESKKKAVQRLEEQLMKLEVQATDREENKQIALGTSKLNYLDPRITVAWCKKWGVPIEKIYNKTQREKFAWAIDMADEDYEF

[5] = Cytotoxicity against human NCI60 cells; assay type: functional

CCSCCC(=O)Nc1ccc2c(c1)C(=O)c1cc(NC(=O)CCSCC)ccc1-2
inhibition (Homo sapiens): inactive
Activity (CAKI-1): 108.37%
Activity (MDA-MB-468): 109.99%
Activity (T47D): 103.44%
Activity (BT-549): 97.04%
Activity [1]: 109.39%
Activity (MDA-MB-231): 118.39%
Activity (MCF7): 94.51%
Activity (DU-145): 112.53%
Activity (PC-3 [2]): 100%
Activity (UO-31): 92.9%
Activity (SN12C): 102.91%
Activity (RXF 393): 105.75%
Activity (ACHN): 112.08%
Activity (A498): 124.53%
Activity (786-0): 96.11%
Activity (SK-OV-3): 110.74%
Activity (NCI/ADR-RES): 103.59%
Activity (OVCAR-8): 94.28%
Activity (OVCAR-5): 109.71%
Activity (OVCAR-3): 123.89%
Activity (IGROV-1): 122.92%
Activity (UACC-62): 107.97%
Activity (UACC-257): 113.41%
Activity (SK-MEL-5): 108.49%
Activity (SK-MEL-28): 103.35%
Activity (SK-MEL-2): 117.38%
Activity (MDA-MB-435): 112.56%
Activity (M14): 101.8%
Activity (Malme-3M): 125.15%
Activity (LOX IMVI): 69.5%
Activity (SNB-75): 92.1%
Activity (U-251): 102.62%
Activity (SF-539): 86.16%
Activity (SNB-19): 106.91%
Activity (SF-295): 85.58%
Activity (SF-268): 122.03%
Activity (SW-620): 116.5%
Activity (KM12): 117.91%
Activity (HT-29): 92.74%
Activity (HCT-15): 104.94%
Activity (HCT-116): 100.1%
Activity (HCC 2998): 107.5%
Activity (COLO 205): 118.9%
Activity (NCI-H522): 90.06%
Activity (NCI-H460): 108.3%
Activity (NCI-H322M): 117.16%
Activity (NCI-H23): 100.62%
Activity (NCI-H226): 104.85%
Activity (HOP-92): 103.43%
Activity (HOP-62): 119.93%
Activity (A549): 106.07%
Activity (RPMI-8226): 103.94%
Activity (MOLT-4): 102.08%
Activity (K562): 102.87%
Activity (HL-60(TB)): 109.4%
Activity (CCRF-CEM): 96.61%
IC50 (PC-3 [3]): > 30 µM

CN(C)CC(=O)Nc1ccc2c(c1)C(=O)c1cc(NC(=O)CN(C)C)ccc1C2=O
inhibition [4]: Active
GI50 [5]: 2.09 µM
